From PubChem BioAssay (NCI)
Several values for one entry are separate records, joined by “and”; a condition that tells them apart may be missing. Equal entries are not always repeated.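 Cultured in 96-well plates, cells were exposed to test compound for 48 hours across five concentrations. GI50: concentration for 50% inhibition of growth. TGI marks complete inhibition of growth.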

Assays:
Assay in all cases: inhibition of tumour cell growth, NCI panel, 48 h
786-0 renal = test system: 786-0 renal
A498 renal = test system: A498 renal
A549 NSCLC = test system: A549 NSCLC
ACHN renal = test system: ACHN renal
BT-549 breast = test system: BT-549 breast
CAKI-1 renal = test system: CAKI-1 renal
CCRF-CEM leukemia = test system: CCRF-CEM leukemia
COLO 205 colon = test system: COLO 205 colon
DU-145 prostate = test system: DU-145 prostate
EKVX NSCLC = test system: EKVX NSCLC
HCT-116 colon = test system: HCT-116 colon
HCT-15 colon = test system: HCT-15 colon
HL-60(TB) leukemia = test system: HL-60(TB) leukemia
HOP-62 NSCLC = test system: HOP-62 NSCLC
HOP-92 NSCLC = test system: HOP-92 NSCLC
HS 578T breast = test system: HS 578T breast
HT29 colon = test system: HT29 colon
IGROV1 ovarian = test system: IGROV1 ovarian
K-562 leukemia = test system: K-562 leukemia
KM12 colon = test system: KM12 colon
LOX IMVI melanoma = test system: LOX IMVI melanoma
M14 melanoma = test system: M14 melanoma
MCF7 breast = test system: MCF7 breast
MDA-MB-231 breast = test system: MDA-MB-231 breast
MDA-MB-435 = test system: MDA-MB-435
MDA-N = test system: MDA-N
MOLT-4 leukemia = test system: MOLT-4 leukemia
NCI-H226 lung = test system: NCI-H226 lung
NCI-H23 lung = test system: NCI-H23 lung
NCI-H460 lung = test system: NCI-H460 lung
NCI/ADR-RES ovarian = test system: NCI/ADR-RES ovarian
OVCAR-3 ovarian = test system: OVCAR-3 ovarian
OVCAR-5 ovarian = test system: OVCAR-5 ovarian
OVCAR-8 ovarian = test system: OVCAR-8 ovarian
PC-3 prostate = test system: PC-3 prostate
RPMI-8226 leukemia = test system: RPMI-8226 leukemia
SF-268 CNS = test system: SF-268 CNS
SF-295 CNS = test system: SF-295 CNS
SF-539 CNS = test system: SF-539 CNS
SK-MEL-2 melanoma = test system: SK-MEL-2 melanoma
SK-MEL-28 melanoma = test system: SK-MEL-28 melanoma
SK-MEL-5 melanoma = test system: SK-MEL-5 melanoma
SK-OV-3 ovarian = test system: SK-OV-3 ovarian
SN12C renal = test system: SN12C renal
SNB-19 CNS = test system: SNB-19 CNS
SNB-75 CNS = test system: SNB-75 CNS
SR leukemia = test system: SR leukemia
SW-620 colon = test system: SW-620 colon
T-47D breast = test system: T-47D breast
TK-10 renal = test system: TK-10 renal
U251 CNS = test system: U251 CNS
UACC-257 melanoma = test system: UACC-257 melanoma
UACC-62 melanoma = test system: UACC-62 melanoma
UO-31 renal = test system: UO-31 renal
HCC-2998 colon = test system: HCC-2998 colon
MALME-3M melanoma = test system: MALME-3M melanoma
NCI-H522 lung = test system: NCI-H522 lung
OVCAR-4 ovarian = test system: OVCAR-4 ovarian
RXF 393 renal = test system: RXF 393 renal

**Q.** What does the source list for `O=c1[nH]c(N/N=C\C(O)C(O)C(O)C(O)CO)nc2ccccc12` (stereo not drawn)?
**A.** TGI (786-0 renal): > 100000 nM; TGI (A498 renal): > 100000 nM; TGI (A549 NSCLC): > 100000 nM; TGI (ACHN renal): > 100000 nM; TGI (BT-549 breast): > 100000 nM; TGI (CAKI-1 renal): > 100000 nM; TGI (CCRF-CEM leukemia): > 100000 nM; TGI (COLO 205 colon): > 100000 nM; TGI (DU-145 prostate): > 100000 nM; TGI (EKVX NSCLC): > 100000 nM; TGI (HCT-116 colon): > 100000 nM; TGI (HCT-15 colon): > 100000 nM; TGI (HL-60(TB) leukemia): > 100000 nM; TGI (HOP-62 NSCLC): > 100000 nM; TGI (HOP-92 NSCLC): > 100000 nM; TGI (HS 578T breast): > 100000 nM; TGI (HT29 colon): > 100000 nM; TGI (IGROV1 ovarian): > 100000 nM; TGI (K-562 leukemia): > 100000 nM; TGI (KM12 colon): > 100000 nM; TGI (LOX IMVI melanoma): > 100000 nM; TGI (M14 melanoma): > 100000 nM; TGI (MCF7 breast): > 100000 nM; TGI (MDA-MB-231 breast): > 100000 nM; TGI (MDA-MB-435): > 100000 nM; TGI (MDA-N): > 100000 nM; TGI (MOLT-4 leukemia): > 100000 nM; TGI (NCI-H226 lung): > 100000 nM; TGI (NCI-H23 lung): > 100000 nM; TGI (NCI-H460 lung): > 100000 nM; TGI (NCI/ADR-RES ovarian): > 100000 nM; TGI (OVCAR-3 ovarian): > 100000 nM; TGI (OVCAR-5 ovarian): > 100000 nM; TGI (OVCAR-8 ovarian): > 100000 nM; TGI (PC-3 prostate): > 100000 nM; TGI (RPMI-8226 leukemia): > 100000 nM; TGI (SF-268 CNS): > 100000 nM; TGI (SF-295 CNS): > 100000 nM; TGI (SF-539 CNS): > 100000 nM; TGI (SK-MEL-2 melanoma): > 100000 nM; TGI (SK-MEL-28 melanoma): > 100000 nM; TGI (SK-MEL-5 melanoma): > 100000 nM; TGI (SK-OV-3 ovarian): > 100000 nM; TGI (SN12C renal): > 100000 nM; TGI (SNB-19 CNS): > 100000 nM; TGI (SNB-75 CNS): > 100000 nM; TGI (SR leukemia): > 100000 nM; TGI (SW-620 colon): > 100000 nM; TGI (T-47D breast): > 100000 nM; TGI (TK-10 renal): > 100000 nM; TGI (U251 CNS): > 100000 nM; TGI (UACC-257 melanoma): > 100000 nM; TGI (UACC-62 melanoma): > 100000 nM; TGI (UO-31 renal): > 100000 nM

**Q.** How did the TGI (786-0 renal) turn out when `O=[N+]([O-])c1cccc2nc3ccccc3c(NCCCCCNc3c4ccccc4nc4cccc([N+](=O)[O-])c34)c12` was run?
**A.** 66.6 nM and 33.2 nM

**Q.** And the TGI (A498 renal)?
**A.** 248 nM

**Q.** What about the TGI (ACHN renal) of the same compound?
**A.** 115 nM and 16.5 nM

**Q.** What about the GI50 (BT-549 breast) of the same compound?
**A.** 183 nM

**Q.** What about the TGI (BT-549 breast) of the same compound?
**A.** 390 nM and 1020 nM

**Q.** What about the GI50 (CAKI-1 renal) of the same compound?
**A.** 19.9 nM

**Q.** What about the TGI (CAKI-1 renal) of the same compound?
**A.** 278 nM and 71.2 nM

**Q.** What about the TGI (COLO 205 colon) of the same compound?
**A.** 130 nM and 32.2 nM

**Q.** And the TGI (DU-145 prostate)?
**A.** 92.9 nM

**Q.** What about the GI50 (EKVX NSCLC) of the same compound?
**A.** 34.6 nM

**Q.** And the TGI (EKVX NSCLC)?
**A.** 353 nM and 1250 nM

**Q.** And the TGI (HCC-2998 colon)?
**A.** 103 nM and 40 nM

**Q.** What about the TGI (HCT-116 colon) of the same compound?
**A.** 34.6 nM

**Q.** What about the TGI (HCT-15 colon) of the same compound?
**A.** 57.3 nM and 119 nM

**Q.** What about the TGI (HL-60(TB) leukemia) of the same compound?
**A.** 42.9 nM

**Q.** And the TGI (HOP-92 NSCLC)?
**A.** 97.3 nM

**Q.** And the TGI (HS 578T breast)?
**A.** 512 nM

**Q.** And the TGI (HT29 colon)?
**A.** 92.2 nM

**Q.** What about the GI50 (IGROV1 ovarian) of the same compound?
**A.** 127 nM

**Q.** And the TGI (IGROV1 ovarian)?
**A.** 506 nM and 1200 nM

**Q.** What about the TGI (K-562 leukemia) of the same compound?
**A.** 678 nM

**Q.** And the TGI (KM12 colon)?
**A.** 249 nM and 29 nM

**Q.** And the GI50 (LOX IMVI melanoma)?
**A.** 74.6 nM

**Q.** And the TGI (M14 melanoma)?
**A.** 198 nM and 24 nM

**Q.** What about the TGI (MALME-3M melanoma) of the same compound?
**A.** 160 nM

**Q.** And the TGI (MDA-MB-231 breast)?
**A.** 92.7 nM

**Q.** What about the GI50 (MDA-MB-435) of the same compound?
**A.** 105 nM and 11.1 nM

**Q.** What about the TGI (MDA-MB-435) of the same compound?
**A.** 259 nM and 28.8 nM

**Q.** What about the TGI (MDA-N) of the same compound?
**A.** 191 nM

**Q.** And the TGI (MOLT-4 leukemia)?
**A.** 244 nM

**Q.** What about the GI50 (NCI-H226 lung) of the same compound?
**A.** 24.9 nM

**Q.** And the TGI (NCI-H226 lung)?
**A.** 562 nM and 1940 nM

**Q.** What about the TGI (NCI-H23 lung) of the same compound?
**A.** 185 nM

**Q.** What about the TGI (NCI-H460 lung) of the same compound?
**A.** 164 nM

**Q.** What about the TGI (NCI-H522 lung) of the same compound?
**A.** 388 nM

**Q.** And the GI50 (NCI/ADR-RES ovarian)?
**A.** 297 nM

**Q.** What about the TGI (NCI/ADR-RES ovarian) of the same compound?
**A.** 2190 nM and 1280 nM

**Q.** What about the GI50 (OVCAR-3 ovarian) of the same compound?
**A.** 13.5 nM

**Q.** And the TGI (OVCAR-3 ovarian)?
**A.** 262 nM and 54 nM

**Q.** And the TGI (OVCAR-4 ovarian)?
**A.** 738 nM

**Q.** And the TGI (OVCAR-5 ovarian)?
**A.** 935 nM

**Q.** What about the TGI (OVCAR-8 ovarian) of the same compound?
**A.** 348 nM

**Q.** And the TGI (PC-3 prostate)?
**A.** 598 nM

**Q.** What about the TGI (RPMI-8226 leukemia) of the same compound?
**A.** 637 nM

**Q.** What about the TGI (RXF 393 renal) of the same compound?
**A.** 111 nM

**Q.** What about the GI50 (SF-295 CNS) of the same compound?
**A.** 22.6 nM

**Q.** And the TGI (SF-295 CNS)?
**A.** 905 nM and 1130 nM

**Q.** And the TGI (SF-539 CNS)?
**A.** 135 nM and 29.7 nM

**Q.** And the TGI (SK-MEL-2 melanoma)?
**A.** 285 nM

**Q.** What about the GI50 (SK-MEL-28 melanoma) of the same compound?
**A.** 55.9 nM

**Q.** What about the TGI (SK-MEL-28 melanoma) of the same compound?
**A.** 455 nM and 241 nM

**Q.** What about the GI50 (SK-MEL-5 melanoma) of the same compound?
**A.** 18 nM

**Q.** What about the TGI (SK-MEL-5 melanoma) of the same compound?
**A.** 255 nM and 149 nM

**Q.** What about the GI50 (SK-OV-3 ovarian) of the same compound?
**A.** 80 nM

**Q.** What about the TGI (SK-OV-3 ovarian) of the same compound?
**A.** 1250 nM and 1140 nM

**Q.** And the TGI (SN12C renal)?
**A.** 77.7 nM and 82.7 nM

**Q.** What about the GI50 (SNB-75 CNS) of the same compound?
**A.** 41 nM

**Q.** And the TGI (SNB-75 CNS)?
**A.** 867 nM and 827 nM

**Q.** What about the TGI (SR leukemia) of the same compound?
**A.** 20.2 nM

**Q.** What about the TGI (SW-620 colon) of the same compound?
**A.** 1620 nM

**Q.** And the GI50 (T-47D breast)?
**A.** 121 nM

**Q.** And the TGI (T-47D breast)?
**A.** 837 nM and 2240 nM

**Q.** And the TGI (TK-10 renal)?
**A.** 260 nM and 1790 nM

**Q.** What about the GI50 (UACC-257 melanoma) of the same compound?
**A.** 61.9 nM

**Q.** And the TGI (UACC-257 melanoma)?
**A.** 393 nM and 1230 nM

**Q.** And the GI50 (UACC-62 melanoma)?
**A.** 35.1 nM

**Q.** What about the TGI (UACC-62 melanoma) of the same compound?
**A.** 303 nM and 307 nM

**Q.** What about the GI50 (UO-31 renal) of the same compound?
**A.** 19.2 nM

**Q.** And the TGI (UO-31 renal)?
**A.** 406 nM and 60.4 nM
